Laboratory results reported in PMC3781220 (The Journal of organic chemistry, 2010).
Read-outs that look alike come from different tables or passages of the source.

Tests used:
[1] = biological target: T1, recombinant yeast squalene synthase (Saccharomyces cerevisiae, UniProt P29704); type: biochemical; conditions: for potency ratio of 2R,3S enantiomer over 2S,3R enantiomer, absence of PPi: no added PPi
T1 sequence (P29704 1-420 limits assumed): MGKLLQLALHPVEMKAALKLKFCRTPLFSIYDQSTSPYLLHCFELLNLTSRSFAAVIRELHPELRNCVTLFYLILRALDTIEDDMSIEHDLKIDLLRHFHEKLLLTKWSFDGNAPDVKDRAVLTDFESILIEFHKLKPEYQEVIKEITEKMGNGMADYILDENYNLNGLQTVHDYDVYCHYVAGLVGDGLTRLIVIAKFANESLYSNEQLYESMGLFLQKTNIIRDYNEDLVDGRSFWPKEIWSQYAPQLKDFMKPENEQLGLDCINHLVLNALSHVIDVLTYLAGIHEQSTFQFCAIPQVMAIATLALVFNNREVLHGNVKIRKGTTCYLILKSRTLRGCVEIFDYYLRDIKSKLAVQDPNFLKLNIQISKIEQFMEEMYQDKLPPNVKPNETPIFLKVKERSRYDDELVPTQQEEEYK

[2] = biological target: T1, recombinant yeast squalene synthase; conditions: cited from earlier work

SMILES: CC(C)=CCC/C(C)=C/CCCCN1[C@H](COP(=O)([O-])OP(=O)([O-])[O-])[C@@]1(C)CC/C=C(\C)CCC=C(C)C.CCCC[N+](CCCC)(CCCC)CCCC.CCCC[N+](CCCC)(CCCC)CCCC.CCCC[N+](CCCC)(CCCC)CCCC (relative stereo) [(2R,3S)-6-OPP, (2R,3S)-trans-[2-((E)-4,8-Dimethyl-3,7-nonadienyl)-1-((E)-6, 10-dimethyl-5,9-undecadienyl)-2-methylaziridin-3-yl]methyl Diphosphate, Tris (tetrabutylammonium) Salt]
- potency ratio of 2R,3S enantiomer over 2S,3R enantiomer, presence of PPi ([1]; 1.5 mM PPi): 4 fold
- synergistic effect of the PPi additive on inhibition ([1]; IC50 −PPi versus +PPi): almost no change
- potency ratio of 2R,3S enantiomer over 2S,3R enantiomer, absence of PPi [1]: about 16 fold
- potency ratio of 2R,3S enantiomer over 2S,3R enantiomer, absence of PPi ([1]; listed as 2R,3S enantiomer): 16 fold
- IC50 ([1]; read-out: IC50, +PPi, 1.5 mM PPi added, pH 7.2, 100 μM [3H]FPP, ± standard error): 1.17 ± 0.08 µM

SMILES: CC(C)=CCC/C(C)=C/CC/C(C)=C/C1C(COP(=O)(O)OP(=O)(O)O)C1(C)CC/C=C(\C)CCC=C(C)C (stereo in doubt) [PSPP, presqualene diphosphate]
- Ki ([2]; read-out: Ki PSPP, affinity of intermediate for the enzyme): 75 ± 20 µM

SMILES: CC(C)=CCC/C(C)=C/CC/C(C)=C/COP(=O)(O)OP(=O)(O)O [FPP, (E,E)-farnesyl diphosphate, reference compound]
- Km ([1]; read-out: Km for FPP, substrate constant given with the Ki experiment): 20 µM
- S0.5 FPP ([2]; affinity of substrate for the enzyme): 19 ± 6 µM
